PMC12057357, “Population pharmacokinetics study on nebulized and intravenous administration of polymyxin B in patients with pneumonia caused by multidrug-resistant gram-negative bacteria” (Antimicrobial Agents and Chemotherapy, 2025)
Bridge positions count the residues as written; N and C are the ends. Square brackets hold non-standard residues; d marks the D form. Peptide text beside a SMILES is read from it. * marks the point of attachment. X1 = CC[C@H](C)CCCCC(=O)*; Dab = NCC[C@H](N)C(=O)O

Key:
[1] = Population pharmacokinetic model of PMB in plasma and ELF of patients with MDR-GNB pneumonia; type: in vivo, human
Description: This was a single-center, prospective study conducted between January 2022 and October 2024 at Fujian Medical University Union Hospital. […] Patients with severe bronchoconstriction, refractory hypoxemia, pregnancy, or those undergoing continuous renal replacement therapy were excluded.
IV PMB was administered according to the manufacturer’s instructions: a loading dose of 100–150 mg ([…]) followed by maintenance doses of 40–75 mg every 12 h, with an infusion time of approximately 1 h. The decision to administer PMB and its dosing regimen was made by the medical team. Concurrently, selected patients received nebulized PMB at a dose of 25 mg dissolved in 5 mL of half-normal sterile water for injection every 12 h via vibration mesh nebulizer or jet nebulizer over 15 min. Eligible patients received nebulized PMB for 3 days for the treatment of pneumonia. During nebulization, ventilation was performed at a constant flow, targeting an inspiration-to-expiration ratio of 0.5. The respiratory rate was set at 18 breaths/min; the tidal volume was set at 8 mL/kg; and the positive end-expiratory pressure was set at 6 cmH2O.
For all patients, when the PMB concentration in the plasma and lungs reached a steady state (after at least four doses), one to six samples were collected into EDTA tubes at the following time points: 0 h before administration and 1, 2, 4, 6, 8, and 12 h after administration. The plasma and bronchoalveolar lavage (BAL) fluid samples for drug assays were centrifuged at 12,000 rpm for 5 min. The supernatant was then collected and stored at −80°C until analysis.
ELF is obtained through BAL. This procedure involves inserting and wedging a fiberoptic bronchoscope into a subsegment of the middle or lower lung lobe. Before performing BAL, the patient’s CT scan is reviewed to select the affected lung segment for lavage. The lavage is performed at the same location using a 0.9% saline solution. The aspirate from the first lavage is usually collected separately and discarded due to potential severe contamination with cells from the proximal airway. Subsequent recovered aspirates are combined, and their volume is measured and recorded. The remaining volume of BAL fluid is immediately centrifuged to separate the supernatant and the cell pellet. Samples used for measuring urea and drug concentrations in the supernatant are collected and frozen until analysis. The concentration of PMB in ELF can be determined using urea as an endogenous biomarker ([4], [8]). Urea concentration in plasma and ELF is typically the same because urea is […], has a low molecular weight, and can rapidly diffuse to establish equilibrium across the capillary-alveolar membrane. By measuring the urea concentration in both BAL fluid and plasma, the dilution factor can be determined, allowing for the calculation of the actual drug concentration in ELF (Eq.1):
(1) CELF,PMB=CBAL, PMB×Cplasma,urea /CBAL,urea.
As polymyxin B1 and B2 structures, molecular weights, pharmacological activities, and PK properties were […], their plasma concentrations were summed to obtain total PMB concentrations ([24]). Concentrations of PMB were determined by a validated liquid chromatography–tandem mass spectrometry assay with minor modifications ([25]). […] For plasma, intra- and interday accuracies ranged from 80.6% to 114.9%, with a coefficient of variation (CV) of 2.6%–14.8%. For BAL fluid, accuracy ranged from 82.3% to 114.3%, with a CV of 3.4%–13.7%. All sample concentrations exceeded the lower limit of quantification (LLOQ).
PopPK analyses were conducted using a non-linear mixed-effect modeling program, NONMEM, version 7.5 (Icon Development Solutions, USA). Model development utilized first-order conditional estimation to assess the interaction between patient variability and residual variability. One- or two-compartment structural models were evaluated for both ELF and plasma drug exposure to establish the basic model that best fitted the original data. […]

[2] = tested on: Pseudomonas aeruginosa (ATCC 27853, PAO1, and FADDI-PA022); conditions: cited from earlier work
Description: Monte Carlo simulations were used to determine the probability of target attainment (PTA), aiding in the selection of the optimal dosage regimen. According to consensus guidelines, the fAUC/MIC is the most relevant PK/PD index associated with bacterial killing ([11]). In this study, we evaluated the PTA of fAUC/MIC across different dosage regimens in cases of pathogenic infection with varying MIC values to better understand the optimal treatment approach. The preclinical data on PMB are limited, and its in vitro activities are similar to those of colistin ([11], [27]). […] Such high fAUC/MIC ...

[3] = tested on: Acinetobacter baumannii (ATCC 19606, 248–01-C.248, and N-16870.213); conditions: cited from earlier work
[4] = plasma; cited from earlier work
Description: Monte Carlo simulations were used to determine the probability of target attainment (PTA), aiding in the selection of the optimal dosage regimen. According to consensus guidelines, the fAUC/MIC is the most relevant PK/PD index associated with bacterial killing ([11]). In this study, we evaluated the PTA of fAUC/MIC across different dosage regimens in cases of pathogenic infection with varying MIC values to better understand the optimal treatment approach. The preclinical data on PMB are limited, and its in vitro activities are similar to those of colistin ([11], [27]). Consequently, some data ...

[5] = cited from earlier work
Description: The issue of dosage adjustments based on renal function has been a contentious topic ...

[6] = tested on: extensively drug-resistant GNB; conditions: cited from earlier work
Description: While an IV loading dose enhances early plasma exposure of PMB, it has minimal impact on early ELF exposure. […] Currently, the dosing regimen for PMB nebulization in clinical practice is predominantly empirical, typically involving doses of 25 or 50 mg administered twice daily ([19][–][21]). In a PK analysis of 105 patients ...

[7] = tested on: human alveolar epithelial A549 cells; design: method as in PMID 34228550, PMID 28416543; conditions: cited from earlier work
Pseudomonas aeruginosa = tested on: Pseudomonas aeruginosa; design: method as in PMID 28031207; conditions: ELF; cited from earlier work
[8] = bootstrap median, 1,000 resampled data sets

CC[C@H](C)CCCCC(=O)N[C@@H](CCN)C(=O)N[C@H](C(=O)N[C@@H](CCN)C(=O)N[C@H]1CCNC(=O)[C@H]([C@@H](C)O)NC(=O)[C@H](CCN)NC(=O)[C@H](CCN)NC(=O)[C@H](CC(C)C)NC(=O)[C@@H](Cc2ccccc2)NC(=O)[C@H](CCN)NC1=O)[C@@H](C)O [PMB, Polymyxin B] (X1-[Dab]T[Dab][Dab][Dab][dF]L[Dab][Dab]T; lactam 4-C)
AGE on V3 (covariate effect) [1, 8]: 1.28
ALB on CL3 (covariate effect) [1, 8]: −0.894
CL1, central compartment clearance of plasma [1, 8]: 1.39 L/h
CL2, intercompartmental clearance of plasma [1, 8]: 13.1 L/h
CL3, central compartment clearance of ELF [1, 8]: 0.186 L/h
CL4, intercompartmental clearance of ELF [1, 8]: 3.44 L/h
F, bioavailability of nebulization [1, 8]: 0.556
Q, intercompartmental clearance between compartments 1 and 3 [1, 8]: 0.03 L/h
V1, central compartment distribution volume of plasma [1, 8]: 27.59 L
V2, intercompartmental (peripheral) distribution volume of plasma [1, 8]: 17.11 L
V3, central compartment distribution volume of ELF [1, 8]: 0.896 L
V4, intercompartmental (peripheral) distribution volume of ELF [1, 8]: 4.33 L
AUC24h, ELF ([1]; epithelial lining fluid, 76 patients, median (interquartile range), nebulized PMB 25 mg q12h alone or with IV PMB, LC-MS/MS, urea-corrected BAL): 52.5 (35.3–102.8) mg·h/L
AGE on V3 (covariate effect) ([1]; final PopPK model estimate): 1.28
ALB on CL3 (covariate effect) ([1]; final PopPK model estimate): −0.893
CL2, intercompartmental clearance of plasma ([1]; final PopPK model estimate): 13.11 L/h
CL3, central compartment clearance of ELF ([1]; final PopPK model estimate): 0.186 L/h
CL4, intercompartmental clearance of ELF ([1]; final PopPK model estimate): 3.44 L/h
F, bioavailability of nebulization (fraction of drug reaching the lungs) ([1]; final PopPK model estimate): 0.557
Q, intercompartmental clearance between compartments 1 and 3 (plasma and ELF) ([1]; final PopPK model estimate): 0.03 L/h
V1, central compartment distribution volume of plasma ([1]; final PopPK model estimate): 27.6 L
V2, intercompartmental (peripheral) distribution volume of plasma ([1]; final PopPK model estimate): 17.1 L
V3, central compartment distribution volume of ELF ([1]; final PopPK model estimate): 0.896 L
V4, intercompartmental (peripheral) distribution volume of ELF ([1]; final PopPK model estimate): 4.35 L
clearance ([1]; human, plasma, final PopPK model estimate, NONMEM, 76 patients, steady state, read-out: CL1, central compartment clearance of plasma (converted)): 23.2 mL/min
AUC24h, plasma ([1]; plasma, median (interquartile range), nebulized PMB alone or with IV PMB, LC-MS/MS): 35.0 (22.0–54.2) mg·h/L
AUC/MIC targets in ELF associated with antibacterial activity [2]: 1,326 to 1,506
AUC/MIC targets in ELF associated with antibacterial activity [3]: 326 to 989
unbound fraction [4]: 0.42
average urine recovery rate [5]: 23.56%
CL1 ([5]; range across previous PMB two-compartment models): 1.19 to 2.63 L/h
CL2 ([5]; range across previous studies): 1.98 to 13.83 L/h
V1 ([5]; range across previous studies): 6.35 to 33.77 L
V2 ([5]; range across previous studies): 7.92 to 78.2 L
urinary recovery rate ([5]; range, ref 39 (Sandri et al.)): 0.98% to 17.4%
bacterial clearance time, inhalation group vs IV group ([6]; P = 0.002): significantly shorter
risk of acute kidney injury, inhalation group vs IV group ([6]; P = 0.025): trend toward a reduced risk
effect on human alveolar epithelial A549 cells [7]: disrupt redox balance, mitochondrial beta-oxidation, and membrane lipid biosynthesis

colistin
fAUCELF/MIC targets (Pseudomonas aeruginosa): 684–1,050
